According to patent US7354739B2, “TML polynucleotides” (ZymoGenetics, Inc., priority 1997, dated 2008):

What was measured:
[1] = system: antral portion of the stomach; assay: Antral stomach contractions monitored by transducing crystals in anesthetized rats; format: in vivo, Sprague-Dawley rats
From the text: Two male Sprague-Dawley rats, approximately 12 weeks old (Harlan, Indianapolis, Ind.) were anesthetized with urethane and their stomachs were exposed through a small abdominal incision. Two 2.4 mm transducing crystals (Sonometrics, Ontario, Canada) were placed on the antral portion of the stomach such that circular contractions could be monitored as a change in the distance between the two crystals. The crystals were attached with VETBOND TISSUE ADHESIVE (3M, St. Paul, Minn.).
The amplitude of the NE-induced decrease was approximately 50% of the acetylcholine-induced increase in distance. Both responses were transient.
A negative control of 10 μl of phosphate buffer solution (PBS) applied topically between the crystals had no effect.
A 14 amino acid zsig33 peptide (from amino acid residue 24 (Gly) to amino acid residue 37 (Gln) of SEQ ID NO: 2) was dissolved in PBS) and 10 μl was applied topically for a final concentration of 1 μg, […]

[2] = system: post-prandial glucose absorption; assay: Oral glucose challenge after oral zsig33 peptide in ob/ob mice; format: in vivo; settings: 100 μg orally, 30 minutes prior to an oral glucose challenge
Experimental: Eight female ob/ob mice, approximately 6 weeks old (Jackson Labs, Bar Harbor, Me.) were adapted to a 4 hour daily feeding schedule for two weeks. After two weeks on the feeding schedule, the mice were give 100 μg of a 14 amino acid amino zsig33 peptide (from amino acid residue 24 (Gly) to amino acid residue 37 (Gln) of SEQ ID NO: 2) in 100 μl sterile 0.1% BSA by oral gavage, immediately after their eating period (post-prandially). Thirty minutes later, the mice were challenged orally with a 0.5 ml volume of 25% glucose. Retroorbital bleeds were done to determine serum glucose levels. Blood was drawn prior to zsig33 dosing, prior to oral glucose challenge, and at 1, 2, 4, and 20 hours following the glucose challenge.

stomach = assay: Transit of phenol red through the stomach (gastric emptying) of fasted rats; format: in vivo, Sprague-Dawley rats; settings: 1 μg applied topically to the stomach; 30 minutes after gavage; compared to a scrambled peptide
Experimental: The effect of topically applied zsig33 peptide (amino acid 24 to 37 of SEQ ID NO: 2) on the transit of phenol red through the stomachs of fasted male Sprague-Dawley rats (Harlan, Indianapolis, Ind.) was evaluated. The rats (6 animals, 8 weeks old) were fasted 24 hrs prior to being anesthetized with urethane(0.5 ml/100 grams of 25% solution). After anesthetizing, the animals were orally gavaged with 1 ml of Phenol Red solution (50 mg/ml in 2% methylcellulose solution). The stomach of each animal was exposed through a small abdominal incision and either 1 μg zsig33 peptide or a 14 amino acid control of a scrambled sequence peptide was applied topically to the stomach five minutes following the gavage. The amount of Phenol Red remaining in the stomach was determined by measuring optical density of the extracted stomach contents 30 minutes after the gavage.

[3] = Fourteen-day twice-daily oral dosing in ob/ob mice: body weight, food intake, glucose clearance; format: in vivo; settings: 1 μg/mouse orally twice daily for fourteen days
Experimental: Sixteen female ob/ob mice, 8 weeks old, (Jackson Labs, Bar Harbor, Me.) were adapted to a special 4 hour daily feeding schedule for two weeks. The were fed ad libitum from 7:30-11:30 am daily. After two weeks on the feeding schedule, the mice were divided into two groups of 8. One group was given 1.0 μg/mouse of zsig33-1 (14 amino acid peptide) and the other vehicle (a 14 amino acid scrambled sequence peptide) in 100 μl sterile 0.1% BSQA by oral gavage just prior to receiving food, and at the end of the 4 hour feeding period. The mice were […] twice daily for fourteen days, during which time food intake and body weight was measured daily. On day 14, immediately after the second oral gavage of the zsig33-1 peptide, the mice were challenged orally with an 0.5 ml volume of 25% glucose. Retro-orbital bleeds were done to determine serum glucose levels immediately prior to administration of the zsig33-1 peptide or vehicle ([…].), and also at 0, 1, 2, and 4 hours following the glucose challenge.

Molecule: zsig33-1: peptide corresponding to amino acid residue 24 (Gly) to residue 37 (Gln) of SEQ ID NO: 2; residues 1 to 14 of SEQ ID NO:11 (GSSFLSPEHQRVQQRKES; listed as Homo sapiens)
- change in crystal distance ([1]; 1 μg in 10 μl PBS applied topically): sustained, rhythmic increase and decrease in crystal distance
- rate and amplitude of the contractions (dose dependence) ([1]; 10 μg and 100 μg applied topically, compared with 1 μg): enhanced responses in both rate and amplitude
- post-prandial glucose absorption (serum glucose) [2]: enhanced post-prandial glucose absorption
- reduction of the amount of Phenol Red remaining in the stomach (stomach): approximately 25%
- daily body weight [3]: no affect
- food intake [3]: no affect

Molecule: NC[C@H](O)c1ccc(O)c(O)c1 [norepinephrine, reference compound]
- amplitude of the NE-induced decrease relative to the acetylcholine-induced increase in distance ([1]; 10 μl of 1 μM applied topically): approximately 50%
- change in the distance between the two crystals ([1]; 10 μl of 1 μM applied topically to the stomach between the crystals): reduction in the distance between the two crystals
